# Measured values published in PubChem BioAssay AID264 (DTP/NCI, 2004).
# “And” between values parts separate entries of the source, which are not always exact repeats. Equal entries are not always repeated. Inconclusive results are not listed.
# Test system: nude mice, LX-1 lung xenograft intrarenal, tumor weight T/C
# Experiment: NCI In Vivo Anticancer Drug Screen. Data for tumor model Human Lung LX-1 Xenograft (intrarenal inoculation) in NU/NU Swiss (nude) mice
# Settings: endpoint: mean tumor weight change, higher = larger tumour
# Outline: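 Readout: T/C, i.e. treated-group tumor measurement over vehicle-control measurement. Mice bearing transplantable tumors were dosed with compound or vehicle.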
# [1] = dose: 300.0 mg/kg/injection, schedule: Q04DX003 (sc), vehicle: suspension in saline
# [2] = dose: 300.0 mg/kg/injection, schedule: Q04DX003 (sc), vehicle: saline with Tween-80
# [3] = dose: 600.0 mg/kg/injection, schedule: Q04DX003 (sc), vehicle: saline with Tween-80
# [4] = dose: 1200.0 mg/kg/injection, schedule: Q04DX003 (sc), vehicle: saline with Tween-80
# [5] = dose: 600.0 mg/kg/injection, schedule: Q04DX003 (sc), vehicle: saline
# [6] = dose: 2400.0 mg/kg/injection, schedule: Q04DX003 (sc), vehicle: saline
# [7] = dose: 37.5 mg/kg/injection, schedule: Q04DX003 (sc), vehicle: saline with Tween-80
# [8] = dose: 75.0 mg/kg/injection, schedule: Q04DX003 (sc), vehicle: saline with Tween-80
# [9] = dose: 150.0 mg/kg/injection, schedule: Q04DX003 (sc), vehicle: saline with Tween-80
# [10] = dose: 2400.0 mg/kg/injection, schedule: Q04DX003 (sc), vehicle: saline with Tween-80
# [11] = dose: 50.0 mg/kg/injection, schedule: Q04DX003 (sc), vehicle: saline with Tween-80
smiles,measurement,setting,value
CCCCn1cnc2c(=S)nc[nH]c21,T/C,[1],69 % of control
same,T/C,"dose: 600.0 mg/kg/injection, schedule: Q04DX003 (sc), vehicle: suspension in saline",53 % of control
same,T/C,"dose: 1200.0 mg/kg/injection, schedule: Q04DX003 (sc), vehicle: suspension in saline",61 % of control
same,T/C,"dose: 2400.0 mg/kg/injection, schedule: Q04DX003 (sc), vehicle: suspension in saline",57 % of control
NC(=O)Oc1cccc(OC(N)=O)c1,T/C,"dose: 300.0 mg/kg/injection, schedule: Q04DX003 (sc), vehicle: water",105 % of control
same,T/C,"dose: 600.0 mg/kg/injection, schedule: Q04DX003 (sc), vehicle: water",89 % of control
same,T/C,"dose: 1200.0 mg/kg/injection, schedule: Q04DX003 (sc), vehicle: water",67 % of control
same,T/C,"dose: 2400.0 mg/kg/injection, schedule: Q04DX003 (sc), vehicle: water",54 % of control
Clc1ccc(CN2COc3c(ccc4cccnc34)C2)cc1Cl,T/C,"dose: 100.0 mg/kg/injection, schedule: Q01DX010 (sc), vehicle: saline with Tween-80",110 % of control
same,T/C,"dose: 200.0 mg/kg/injection, schedule: Q01DX010 (sc), vehicle: saline with Tween-80",87 % of control
same,T/C,"dose: 400.0 mg/kg/injection, schedule: Q01DX010 (sc), vehicle: saline with Tween-80",97 % of control
same,T/C,"dose: 800.0 mg/kg/injection, schedule: Q01DX010 (sc), vehicle: saline with Tween-80",110 % of control
COC1C(/C=C/C(C)=O)OC2OC(C)(C)OC21 (stereo not given),T/C,"dose: 75.0 mg/kg/injection, schedule: Q04DX003 (sc), vehicle: suspension in saline",52 % of control
same,T/C,"dose: 150.0 mg/kg/injection, schedule: Q04DX003 (sc), vehicle: suspension in saline",158 % of control
same,T/C,[1],123 % of control
CC(Cc1ccc(O)cc1)NCC(O)c1ccc(O)c(O)c1 (stereo not given),T/C,[2],62 % of control
same,T/C,[3],98 % of control
same,T/C,[4],61 % of control
Cc1cn(C2CC3[O][Sn]([c]4ccccc4)([c]4ccccc4)[O]CC3O2)c(=O)[nH]c1=O (stereo not given),T/C,[5],107 % of control
same,T/C,[6],47 % of control
NC(C/[N+]([O-])=N/O)C(=O)O (stereo not given),T/C,"dose: 50.0 mg/kg/injection, schedule: Q01DX010 (sc), vehicle: saline",47 % of control
ClCCCN1CCCCC1CCl (stereo not given),T/C,"dose: 12.5 mg/kg/injection, schedule: Q04DX003 (sc), vehicle: saline",88 % of control
same,T/C,"dose: 25.0 mg/kg/injection, schedule: Q04DX003 (sc), vehicle: saline",71 % of control
C=CCc1cn(C2CC(O)C(CO)O2)c(=O)[nH]c1=O (stereo not given),T/C,"dose: 300.0 mg/kg/injection, schedule: Q04DX003 (sc), vehicle: saline",91 % of control
same,T/C,[5],82 % of control
same,T/C,"dose: 1200.0 mg/kg/injection, schedule: Q04DX003 (sc), vehicle: saline",74 % of control
same,T/C,[6],111 % of control
N[C@@H](Cc1ccc(N(CCCl)CCCl)cc1)C(=O)O,T/C,"dose: 1.0 mg/kg/injection, schedule: Q01DX010 (sc), vehicle: saline",107 % of control
CC1=C(C)C(=O)O[C@@H]([C@](C)(O)[C@]2(O)CC[C@@]3(O)[C@@H]4C[C@H]5O[C@]56[C@@H](O)C=CC(=O)[C@]6(C)[C@H]4CC[C@]23C)C1,T/C,"dose: 4.0 mg/kg/injection, schedule: Q01DX010 (sc), vehicle: saline",61 % of control
same,T/C,"dose: 64.0 mg/kg/injection, schedule: Q01DX010 (sc), vehicle: saline",121 % of control
[Cl][Pt+2][Cl].[NH-]C1CCC1.[NH2-],T/C,"dose: 12.5 mg/kg/injection, schedule: Q04DX003 (sc), vehicle: suspension in saline",57 % of control
CC(C)[NH-].CC(C)[NH-].[Cl][Pt+2][Cl],T/C,"dose: 25.0 mg/kg/injection, schedule: Q01DX010 (sc), vehicle: dextrose",48 % of control
same,T/C,"dose: 50.0 mg/kg/injection, schedule: Q01DX010 (sc), vehicle: dextrose",50 % of control
same,T/C,"dose: 100.0 mg/kg/injection, schedule: Q01DX010 (sc), vehicle: dextrose",71 % of control
CNNCc1ccc(C(=O)NC(C)C)cc1,T/C,"dose: 166.66 mg/kg/injection, schedule: Q04DX003 (ip), vehicle: saline",-73 % of control
same,T/C,"dose: 333.33 mg/kg/injection, schedule: Q04DX003 (ip), vehicle: saline",-64 % of control
same,T/C,"dose: 666.65 mg/kg/injection, schedule: Q04DX003 (ip), vehicle: saline",-73 % of control
CCC[P+](c1ccccc1)(c1ccccc1)c1ccccc1,T/C,[7],83 % of control
same,T/C,[8],79 % of control
same,T/C,[9],79 % of control
CC[C@H](CC[C@@H](C)C1CC[C@H]2[C@@H]3CC=C4C[C@@H](OP(=O)(N5CC5)N5CC5)CC[C@]4(C)[C@H]3CC[C@]12C)C(C)C (stereo not given in full),T/C,[2],57 % of control
same,T/C,[3],78 % of control
same,T/C,[4],83 % of control
same,T/C,[10],80 % of control
NC(=S)N/N=C/c1ccc(O)cn1,T/C,[11],102 % of control
same,T/C,"dose: 100.0 mg/kg/injection, schedule: Q04DX003 (sc), vehicle: saline with Tween-80",94 % of control
same,T/C,"dose: 200.0 mg/kg/injection, schedule: Q04DX003 (sc), vehicle: saline with Tween-80",96 % of control
same,T/C,"dose: 400.0 mg/kg/injection, schedule: Q04DX003 (sc), vehicle: saline with Tween-80",64 % of control
CNC(=O)n1c(N)nc(-c2ccccc2)c1-c1ccccc1,T/C,[7],114 % of control
same,T/C,[8],122 % of control
same,T/C,[9],57 % of control
Cc1ccc(S(=O)(=O)N/N=C/C(Br)=C(/Br)C(=O)O)cc1,T/C,"dose: 150.0 mg/kg/injection, schedule: Q04DX003 (sc), vehicle: Klucel (hydroxypropylcellulose) (HPC)",66 % of control
same,T/C,"dose: 300.0 mg/kg/injection, schedule: Q04DX003 (sc), vehicle: Klucel (hydroxypropylcellulose) (HPC)",58 % of control
same,T/C,"dose: 600.0 mg/kg/injection, schedule: Q04DX003 (sc), vehicle: Klucel (hydroxypropylcellulose) (HPC)",43 % of control
COC(=Nc1ccccc1)SSC(C)C,T/C,[2],120 % of control
same,T/C,[3],94 % of control
same,T/C,[4],107 % of control
O=C1c2c(O)ccc(O)c2C(=O)c2c(NCCNCCO)ccc(NCCNCCO)c21,T/C,"dose: 0.5 mg/kg/injection, schedule: Q01DX010 (sc), vehicle: acid diluted with saline",57 % of control
same,T/C,"dose: 0.5 mg/kg/injection, schedule: Q01DX010 (sc), vehicle: water",47 % of control
same,T/C,"dose: 1.0 mg/kg/injection, schedule: Q01DX010 (sc), vehicle: acid diluted with saline",40 % of control
same,T/C,"dose: 1.0 mg/kg/injection, schedule: Q01DX010 (sc), vehicle: water",34 % of control
same,T/C,"dose: 2.0 mg/kg/injection, schedule: Q01DX010 (sc), vehicle: acid diluted with saline",52 % of control
same,T/C,"dose: 5.0 mg/kg/injection, schedule: Q04DX003 (sc), vehicle: water",53 % of control
same,T/C,"dose: 10.0 mg/kg/injection, schedule: Q04DX003 (sc), vehicle: water",26 % of control
Nc1nncs1,T/C,"dose: 12.5 mg/kg/injection, schedule: Q01DX010 (sc), vehicle: saline",104 % of control
C[CH2][Ge]([CH2]C)[CH2]C.C[CH2][Ge]([CH2]C)[CH2]C.C[CH2][Ge]([CH2]C)[O][Ge]([CH2]C)[CH2]C,T/C,[8],91 % of control
same,T/C,[9],98 % of control
same,T/C,[2],63 % of control
same,T/C,[3],114 % of control
[Cl][Mn][Cl],T/C,"dose: 75.0 mg/kg/injection, schedule: Q04DX003 (sc), vehicle: saline",68 % of control
same,T/C,"dose: 150.0 mg/kg/injection, schedule: Q04DX003 (sc), vehicle: saline",50 % of control
CN(C)CCOc1ccc2c(c1)C/C(=C/c1ncc([N+](=O)[O-])n1C)C2=O,T/C,[2],93 % of control
same,T/C,[3],82 % of control
same,T/C,[4],44 % of control
same,T/C,[10],61 % of control
NC(=O)c1csc(C2OC(CO)C(O)C2O)n1 (stereo not given),T/C,"dose: 200.0 mg/kg/injection, schedule: Q04DX003 (sc), vehicle: water",77 % of control
same,T/C,"dose: 400.0 mg/kg/injection, schedule: Q04DX003 (sc), vehicle: water",64 % of control
same,T/C,"dose: 800.0 mg/kg/injection, schedule: Q04DX003 (sc), vehicle: water",99 % of control
same,T/C,"dose: 1600.0 mg/kg/injection, schedule: Q04DX003 (sc), vehicle: water",97 % of control
CC(=O)OCc1cc(=O)n(C)c2c3c4c(cc12)c(C)cc(=O)n4CO3,T/C,"dose: 25.0 mg/kg/injection, schedule: Q01DX010 (sc), vehicle: Klucel (hydroxypropylcellulose) (HPC)",113 % of control
same,T/C,"dose: 50.0 mg/kg/injection, schedule: Q01DX010 (sc), vehicle: Klucel (hydroxypropylcellulose) (HPC)",83 % of control and 222 % of control
same,T/C,"dose: 200.0 mg/kg/injection, schedule: Q01DX010 (sc), vehicle: Klucel (hydroxypropylcellulose) (HPC)",93 % of control and 105 % of control
CN=C(N)N/N=C(\c1ccccc1)c1ccc(Br)cc1,T/C,"dose: 12.5 mg/kg/injection, schedule: Q04DX003 (sc), vehicle: saline with Tween-80",88 % of control
same,T/C,"dose: 25.0 mg/kg/injection, schedule: Q04DX003 (sc), vehicle: saline with Tween-80",122 % of control
same,T/C,[11],103 % of control
